Results from PMC7957578, “N-(1,3,4-Oxadiazol-2-yl)Benzamides as Antibacterial Agents against Neisseria gonorrhoeae” (International Journal of Molecular Sciences, 2021).
Values after ≈ are worked out from the molar mass of the structure shown. Read-outs that look alike come from different tables or passages of the source.

Columns and labels:
[1] = system: N. gonorrhoeae strain 181; experiment: MIC by broth microdilution against N. gonorrhoeae strain 181; format: cell-based, Neisseria gonorrhoeae; settings: Neisseria gonorrhoeae; N. gonorrhoeae strain 181; read-out: MIC
Experimental: (§1) Briefly, bacteria were grown overnight on chocolate agar II at 37° C in the presence of 5% CO2. Afterwards, a bacterial suspension equivalent to 1.0 McFarland standard was prepared and diluted in brucella broth supplemented with yeast extract, neopeptone, hematin, pyridoxal, and NAD. Test agents were added in the first row of the 96-well plates and serially diluted along the plates. Plates were then incubated at 37° C in the presence of 5% CO2 for 24 h. […] Plates were then incubated at 37 ° C in the presence of 5% CO2 for 24 h. The MBC was categorized as the lowest concentration that reduced bacterial growth by 99.9% [45, 46, 47].

[2] = system: N. gonorrhoeae 194; experiment: MIC/MBC against N. gonorrhoeae clinical isolate 194; format: cell-based; settings: Neisseria gonorrhoeae
Experimental: as §1

[3] = system: panel drug-resistant pathogenic N. gonorrhoeae strains; experiment: MIC/MBC against a panel of drug-resistant N. gonorrhoeae strains; format: cell-based, Neisseria gonorrhoeae; settings: MBC the same as or one-fold higher than MIC
[4] = system: S. aureus ATCC 25923; experiment: MIC/MBC (CLSI broth microdilution) against S. aureus ATCC 25923; format: cell-based; settings: Staphylococcus aureus, ATCC25923, S. aureus ATCC 25923
Experimental: (§2) The minimum inhibitory concentrations (MICs) of the tested compounds and control drugs, linezolid, vancomycin, and gentamicin, were determined using the broth microdilution method according to the guidelines outlined by the Clinical and Laboratory Standards Institute (CLSI) against clinically relevant bacterial (Staphylococcus aureus, MRSA, Escherichia coli, Enterococcus faecalis and Enterococcus faecium strains. S. aureus, MRSA, E. coli, Enterococcus faecalis and Enterococcus faecium were grown aerobically overnight on tryptone soy agar (TSA) plates at 37° C. Afterwards, a bacterial solution equivalent to 0.5 McFarland standard was prepared and diluted in cation-adjusted Mueller–Hinton broth (CAMHB) (for S. aureus, MRSA, and E. coli) to achieve a bacterial concentration of about 5 × 10^5 CFU/mL. Enterococcus faecalis and Enterococcus faecium 0.5 McFarland standard solution was diluted in tryptone soy broth (TSB) to achieve a bacterial concentration of about 5 × 10^5 CFU/mL. Compounds and control drugs were added in the first row of 96-well plates and serially diluted with the corresponding media containing bacteria. Plates were then incubated as previously described. […] The minimum bactericidal concentration (MBC) was tested by spotting 4 µL from wells with no growth onto TSA plates. Plates were incubated at 37 ° C for at least 18 h before recording the MBC. The MBC was categorized as the lowest concentration that reduced bacterial growth by 99.9% [45, 46, 47].

[5] = system: VRE. faecalisATCC 51575; experiment: MIC/MBC (CLSI broth microdilution) against VRE faecalis ATCC 51575; format: cell-based; settings: Enterococcus, VRE faecalis ATCC 51575
Experimental: as §2

[6] = system: VRE. faecalis ATCC 51299; experiment: MIC/MBC (CLSI broth microdilution) against VRE faecalis ATCC 51299; format: cell-based; settings: Enterococcus, VRE faecalis ATCC 51299
Experimental: as §2

[7] = system: VRE. faecium ATCC 700221; experiment: MIC/MBC (CLSI broth microdilution) against VRE faecium ATCC 700221; format: cell-based; settings: Enterococcus, VRE faecium ATCC 700221
Experimental: as §2

[8] = system: L. monocytogenes ATCC 19115; experiment: MIC/MBC (CLSI broth microdilution) against L. monocytogenes ATCC 19115; format: cell-based; settings: Listeria monocytogenes, ATCC19115, L. monocytogenes ATCC 19115
[9] = system: E. coli BW25113 (wild-type strain); experiment: MIC/MBC (CLSI broth microdilution) against E. coli BW25113 wild type; format: cell-based, Escherichia coli; settings: E. coli BW25113 wild-type strain
Experimental: as §2

[10] = system: E. coli JW55031 (TolC Mutant); experiment: MIC/MBC (CLSI broth microdilution) against E. coli TolC mutant; format: cell-based; settings: Escherichia coli
Experimental: as §2

[11] = system: N. gonorrhoeae; experiment: MIC against N. gonorrhoeae in presence of fetal bovine serum; format: cell-based; settings: Neisseria gonorrhoeae, 24 h
[12] = system: human colorectal cells (Caco-2); experiment: In vitro cytotoxicity, MTS assay; format: cell-based
Experimental: HSGN-237 and -238 were assayed for potential cytotoxicity against a human colorectal adenocarcinoma (Caco-2) cell line, as described previously. Briefly, tested compounds were incubated with caco-2 cells for 24 and 48 h. Then, the cells were incubated with MTS (3-(4,5-dimethylthiazol-2-yl)-5-(3-carboxymethoxyphenyl)-2-(4-sulfophenyl)-2H-tetrazolium) reagent for 4 h before measuring the absorbance values (OD490).
Figure 2 In vitro cytotoxicity assessment of HSGN-237 and -238 (tested in triplicate) against human colorectal cells (Caco-2) after (A) 24 h, and (B) 48 h, using the 3-(4,5-dimethylthiazol-2-yl)-5-(3-carboxymethoxyphenyl)-2-(4-sulfophenyl)-2H-tetrazolium (MTS) assay. Results are presented as percent viable cells relative to DMSO (negative control). Error bars represent standard deviation values. A two-way ANOVA, with post hoc Dunnet’s multiple comparisons test, determined the statistical difference between the values obtained for the compound and DMSO. Asterisks denote statistically significant differences between treatments of cells with either HSGN-237 or -238 as compared to DMSO-treated cells. The experiment was repeated 3 independent times.

[13] = system: tested bacterial strains (Table 3); experiment: MBC versus MIC against the panel of Gram-positive and Gram-negative pathogens; format: cell-based; settings: MBCs more than three-fold higher than MICs, strains of Table 3
Experimental: While the focus of these new N-(1,3,4-oxadiazol-2-yl)benzamides is towards N. gonorrhoeae, we proceeded to test their activity against other Gram-positive and Gram-negative pathogens. Intriguingly, HSGN-235, HSGN-237, and HSGN-238 had potent activity against the tested Gram-positive bacterial pathogens. For instance, all three compounds had potent activity against the staphylococcal strains, with MICs ranging from 0.25 to 1 µg/mL (Table 3). Furthermore, HSGN-235, HSGN-237, and HSGN-238 maintained potent activity against clinically relevant Gram-positive bacterial pathogens such as vancomycin-resistant enterococci (VRE) and Listeria monocytogenes (Table 3). Additionally, we moved to test if HSGN-235, HSGN-237, and HSGN-238 were active against other Gram-negative bacterial pathogens. […] This lack of activity against Gram-negative bacteria appears to be due to HSGN-235, HSGN-237, and HSGN-238 being a substrate for efflux.
The minimum inhibitory concentrations (MICs) of the tested compounds and control drugs, linezolid, vancomycin, and gentamicin, were determined using the broth microdilution method according to the guidelines outlined by the Clinical and Laboratory Standards Institute (CLSI) against clinically relevant bacterial (Staphylococcus aureus, MRSA, Escherichia coli, Enterococcus faecalis and Enterococcus faecium strains. S. aureus, MRSA, E. coli, Enterococcus faecalis and Enterococcus faecium were grown aerobically overnight on tryptone soy agar (TSA) plates at 37° C. Afterwards, a bacterial solution equivalent to 0.5 McFarland standard was prepared and diluted in cation-adjusted Mueller–Hinton broth (CAMHB) (for S. aureus, MRSA, and E. coli) to achieve a bacterial concentration of about 5 × 10^5 CFU/mL. Enterococcus faecalis and Enterococcus faecium 0.5 McFarland standard solution was diluted in tryptone soy broth (TSB) to achieve a bacterial concentration of about 5 × 10^5 CFU/mL. Compounds and control drugs were added in the first row of 96-well plates and serially diluted with the corresponding media containing bacteria. […]

O=C(Nc1nnc(-c2ccc(Cl)s2)o1)c1ccc(OC(F)(F)F)cc1 [HSGN-238, N-(5-(5-Chlorothiophen-2-yl)-1,3,4-oxadiazol-2-yl)-4-(trifluoromethoxy)benzamide]
MIC [1]: 0.125 µg/mL (≈ 0.321 µM)
MBC [2]: 0.125 µg/mL (≈ 0.321 µM)
MIC [2]: 0.125 µg/mL (≈ 0.321 µM)
type of activity from MBC versus MIC [3]: bactericidal activity
MBC ([4]; read-out: MBC): > 64 µg/mL
MIC ([4]; read-out: MIC): 0.25 µg/mL (≈ 0.641 µM)
MBC ([5]; read-out: MBC): 32 µg/mL (≈ 82.1 µM)
MIC ([5]; read-out: MIC): 1 µg/mL (≈ 2.57 µM)
MBC ([6]; read-out: MBC): 8 µg/mL (≈ 20.5 µM)
MIC ([6]; read-out: MIC): 0.25 µg/mL (≈ 0.641 µM)
MBC ([7]; read-out: MBC): 8 µg/mL (≈ 20.5 µM)
MIC ([7]; read-out: MIC): 0.25 µg/mL (≈ 0.641 µM)
MBC ([8]; read-out: MBC): 32 µg/mL (≈ 82.1 µM)
MIC ([8]; read-out: MIC): 0.5 µg/mL (≈ 1.28 µM)
MIC [9]: >8 µg/mL
MBC ([9]; Escherichia coli, read-out: MBC): > 8 µg/mL
MIC ([9]; Escherichia coli, read-out: MIC): > 8 µg/mL
MBC [10]: 32 µg/mL (≈ 82.1 µM)
MIC [10]: 0.06 µg/mL (≈ 0.154 µM)
MIC ([11]; 1% FBS added to the media): 0.25 µg/mL
MIC ([11]; 5% FBS added to the media): 1 µg/mL
MIC ([11]; 10% FBS added to the media): 1 µg/mL
non-toxic concentration ([12]; Caco-2 cells, 24 and 48 h, MTS assay): up to 16 µg/mL
non-toxic concentration relative to MIC against N. gonorrhoeae ([12]; Caco-2 non-toxic concentration versus corresponding MIC): 128 times
type of activity from MBC versus MIC [13]: bacteriostatic agents
